This note sets out measurements from US8546389B2 (priority 2010, dated 2013).

Each structure is given as a SMILES string. Where only a bound is given, the exact number is not on record here.

One experiment has as its target 1b (BK) NS5bΔ21 (Hepatitis C virus genotype 1b (isolate BK) (HCV), UniProt P26663). In words: HCV polymerase inhibition assay, genotype 1b. The settings on record: 1b (BK) NS5bΔ21, 33P-GTP incorporation; read-out: 1b polymerase IC50 (range class). It is filed as biochemical, HCV genotype 1b (BK). The method, then: HCV polymerase reactions were carried out using a modified method of Howe et al., Antimicrobial Agents and Chemotherapy 2004 48(12): 4813-4821. Reactions contained a final concentration of, 0.5% DMSO, 50 nM, 1b (BK) NS5bΔ21, 20 mM Tris-HCl pH 7.5, 5 mM MgCl2, 5 mM MnCl2, 3 mM DTT, 0.05% BSA, 0.2 U/μL RNasin, 10 μg/mL Poly(rC) template, GTP (at Km) and 0.05 μCi/μL ^33P-GTP in a total reaction volume of 50 μL. Compounds were tested in a three fold dilution series, for example starting from 50 μM. Reactions were initiated with the addition of GTP and terminated after 1 hour with 50 μL ice cold 0.2 M EDTA. Terminated reactions were transferred to DEAE 96-well filter plates, unincorporated nucleotides washed from the filters and 50 μL scintillation fluid added prior to reading on a scintillation counter. Similarly, a genotype 3a (VRL-69) NS5bΔ21 polymerase enzyme assay was conducted using essentially the same method.
The compound concentration that reduced ^33P-GTP incorporation by 50% (IC50) was calculated using non-linear regression.

The test system of experiment [1] is genotype 1b (Con 1) subgenomic replicon cell line. Put plainly: HCV replicon assay, genotype 1b (Renilla luciferase). The experiment is classed as cell-based, HCV genotype 1b (Con 1). The note with it: Hepatitis C virus; genotype 1b replicon, 72 hours, luciferase; read-out: genotype 1b EC50 (range class). How it is done: A genotype 1b (Con 1) subgenomic replicon cell line based on Blight et al., Science 2000 290: 1972-1974, modified to express a Renilla luciferase reporter gene was used to assess antiviral activity of test compounds. Cell cultures were maintained in a sub-confluent state in DMEM with glutamine, 10% heat-inactivated foetal bovine serum (FBS) and G418 (Geneticin®).
For assay, cells were seeded at a density of 7000 cells/well into 96 well tissue culture trays in culture media lacking G418. Compounds were tested in a three fold dilution series, for example starting from 50 uM. After 72 hours incubation at 37° C. and 5% CO2, Renilla luciferase activity was quantified via the Promega Renilla Luciferase or Renilla-Glo™ Luciferase Assay Systems (Promega corporation. The same method was employed for replicon assays using subgenomic genotype 1a and 2a replicon cell lines with a seeding cell density of 5000 cells/well for the 2a cell lines.
The compound concentration that reduced luciferase activity by 50% (EC50) was calculated using non-linear regression.

One may read the IC50 as the concentration at which inhibition is half-maximal. For orientation: EC50 means the concentration giving half of the maximal effect.

Sequence of 1b (BK) NS5bΔ21 (P26663 2420-2989): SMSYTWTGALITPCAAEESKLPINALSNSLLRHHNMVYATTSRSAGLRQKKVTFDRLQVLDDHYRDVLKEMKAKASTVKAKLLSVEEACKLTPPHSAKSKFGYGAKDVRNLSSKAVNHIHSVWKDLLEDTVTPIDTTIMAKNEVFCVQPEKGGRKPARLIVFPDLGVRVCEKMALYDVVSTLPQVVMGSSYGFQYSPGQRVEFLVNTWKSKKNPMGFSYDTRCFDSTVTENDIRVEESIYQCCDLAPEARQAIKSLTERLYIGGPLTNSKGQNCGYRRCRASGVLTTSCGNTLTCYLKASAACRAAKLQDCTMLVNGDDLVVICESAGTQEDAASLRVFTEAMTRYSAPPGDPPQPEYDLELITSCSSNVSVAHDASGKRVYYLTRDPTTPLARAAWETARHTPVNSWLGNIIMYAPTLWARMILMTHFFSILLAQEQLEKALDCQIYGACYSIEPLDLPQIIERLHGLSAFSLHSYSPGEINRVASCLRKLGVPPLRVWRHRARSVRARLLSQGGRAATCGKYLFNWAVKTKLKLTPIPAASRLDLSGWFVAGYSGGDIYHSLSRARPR

For `CNC(=O)c1c2cc(C3CC3)c(N(CCCO)S(C)(=O)=O)cc2nn1-c1ccc(COC(C)C)cc1` [Compound 79, 5-Cyclopropyl-6-[(3-hydroxypropyl)(methylsulfonyl)amino]-N-methyl-2-{4-[(propan-2-yloxy)methyl]phenyl}-2H-indazole-3-carboxamide], the IC50 at 1b (BK) NS5bΔ21 is 1000 to 9990 nM. Moreover, in experiment [1], the EC50 was 1000 to 9990 nM.
As to `CCN(c1cc2nn(-c3ccc(C)c(F)c3)c(C(=O)NC)c2cc1C1CC1)S(C)(=O)=O` [Compound 244], the half-maximal inhibitory concentration (IC50) at 1b (BK) NS5bΔ21 was under 990 nM. Further, the EC50 in experiment [1] is under 990 nM.
As to `CNC(=O)c1c2cc(C3CC3)c(N(CCCN(C)C)S(C)(=O)=O)cc2nn1-c1ccc(Br)cc1` [Compound 65, 2-(4-Bromophenyl)-5-cyclopropyl-6-{[3-(dimethylamino)propyl] (methylsulfonyl)amino}-N-methyl-2H-indazole-3-carboxamide], the IC50 on 1b (BK) NS5bΔ21 was under 990 nM. The EC50 in experiment [1] is under 990 nM.
Consider `CNC(=O)c1c2cc(C3CC3)c(N(CCCNC(=O)c3ccccc3C(=O)O)S(C)(=O)=O)cc2nn1-c1ccc(NCC(C)C)cc1` [Compound 146], for which the IC50 on 1b (BK) NS5bΔ21 was under 990 nM. For the same compound, in experiment [1], the EC50 is 1000 to 9990 nM.
For `CNC(=O)c1c2cc(C3CC3)c(N(C3CCN(S(C)(=O)=O)CC3)S(C)(=O)=O)cc2nn1-c1ccc(Br)cc1` [Compound 108, 2-(4-bromophenyl)-5-cyclopropyl-N-methyl-6-[methylsulfonyl-(1-methylsulfonyl(piperidin-4-yl))amino]-2H-indazole-3-carboxamide], the IC50 at 1b (BK) NS5bΔ21 is under 990 nM. Moreover, the EC50 in experiment [1] lay within 1000 to 9990 nM.
For `CNC(=O)c1c2cc(C3CC3)c(N(CCF)S(C)(=O)=O)cc2nn1-c1ccc(Br)cc1` [Compound 241] the same measures were under 990 nM and under 990 nM.
Consider `CCN(c1cc2nn(-c3ccc(Nc4ccccc4F)cc3)c(C(=O)NC)c2cc1C1CC1)S(C)(=O)=O` [Compound 25], for which, at 1b (BK) NS5bΔ21, the IC50 was under 990 nM. Besides, the EC50 in experiment [1] is under 990 nM.
Turning to `CNC(=O)c1c2cc(C3CC3)c(N(CC3CC3)S(C)(=O)=O)cc2nn1-c1ccc(Br)cc1` [Compound 231], the IC50 on 1b (BK) NS5bΔ21 was under 990 nM. Also, the EC50 in experiment [1] is under 990 nM.
As for `CNC(=O)c1c2cc(C3CC3)c(N(CCC(=O)NS(=O)(=O)c3ccc(F)cc3)S(C)(=O)=O)cc2nn1-c1ccc(Br)cc1` [Compound 154], the IC50 at 1b (BK) NS5bΔ21 was under 990 nM. In addition, the EC50 in experiment [1] was in the range of 10000 to 50000 nM.
In the same order, the values of `CNC(=O)CCC(=O)NCCCN(c1cc2nn(-c3ccc(Br)cc3)c(C(=O)NC)c2cc1C1CC1)S(C)(=O)=O` [Compound 152] are under 990 nM and 10000 to 50000 nM.
For `CNC(=O)CCCN(c1cc2nn(-c3ccc(Br)cc3)c(C(=O)NC)c2cc1C1CC1)S(C)(=O)=O` [Compound 143], at 1b (BK) NS5bΔ21, the IC50 was under 990 nM. Moreover, in experiment [1], the EC50 is 1000 to 9990 nM.
For `CCc1cc2c(C(=O)NC)n(-c3ccc(F)cc3)nc2cc1N(CC)S(C)(=O)=O` [Compound 72, 5-ethyl-6-[ethyl(methylsulfonyl)amino]-2-(4-fluorophenyl)-N-methyl-2H-indazole-3-carboxamide] the same measures were 1000 to 9990 nM and 1000 to 9990 nM.
`CNC(=O)c1c2cc(C3CC3)c(N(CCCO)S(C)(=O)=O)cc2nn1-c1ccc(Oc2ccccc2F)cc1` [Compound 29]: the IC50 at 1b (BK) NS5bΔ21 is under 990 nM. In addition, in experiment [1], the EC50 is under 990 nM.
As for `CNC(=O)c1c2cc(C3CC3)c(N(CCO)S(C)(=O)=O)cc2nn1-c1ccc(F)cc1` [Compound 14, 5-cyclopropyl-2-(4-fluorophenyl)-6-[(2-hydroxyethyl)(methylsulfonyl)amino]-N-methyl-2H-indazole-3-carboxamide], the IC50 at 1b (BK) NS5bΔ21 was in the range of 10000 to 50000 nM. Besides, the EC50 in experiment [1] lay in the range of 1000 to 9990 nM.
For `CNC(=O)c1c2cc(C3CC3)c(N(CCNC(=O)Cc3nn[nH]n3)S(C)(=O)=O)cc2nn1-c1ccc(Br)cc1` [Compound 8, 2-(4-bromophenyl)-5-cyclopropyl-N-methyl-6-[(methylsulfonyl){2-[(2H-tetrazol-5-ylacetyl)amino]ethyl}amino]-2H-indazole-3-carboxamide] the same measures were under 990 nM and 10000 to 50000 nM.
In the same order, the values of `CNC(=O)c1c2cc(C3CC3)c(-c3c(C)noc3C)cc2nn1-c1ccc(C)cc1` [Compound 226] are 10000 to 50000 nM and 1000 to 9990 nM.
For `CNC(=O)c1c2cc(C3CC3)c(N(CCCNC(=O)[C@H]3C[C@H]3C(=O)O)S(C)(=O)=O)cc2nn1-c1ccc(Br)cc1` [Compound 218] the same measures were under 990 nM and 1000 to 9990 nM.
Take `CCS(=O)(=O)NC(=O)CCCN(c1cc2nn(-c3ccc(Br)cc3)c(C(=O)NC)c2cc1C1CC1)S(C)(=O)=O` [Compound 193]: the IC50 on 1b (BK) NS5bΔ21 was under 990 nM. Moreover, the EC50 in experiment [1] lay within 1000 to 9990 nM.
For `CCNC(=O)CCN(c1cc2nn(-c3ccc(Br)cc3)c(C(=O)NC)c2cc1C1CC1)S(C)(=O)=O` [Compound 162] the same measures were 1000 to 9990 nM and 1000 to 9990 nM.
In the same order, the values of `CCOC(=O)C(CCCN(c1cc2nn(-c3ccc(Br)cc3)c(C(=O)NC)c2cc1C1CC1)S(C)(=O)=O)C(=O)OCC` [Compound 212] are under 990 nM and under 990 nM.
For `CCN(c1cc2nn(-c3ccc(Oc4ccc(F)cc4)cc3)c(C(=O)NC)c2cc1C1CC1)S(C)(=O)=O` [Compound 23] the same measures were under 990 nM and under 990 nM.
In the case of `CNC(=O)c1c2cc(C3CC3)c(N(CCCC(=O)NS(=O)(=O)N(C)C)S(C)(=O)=O)cc2nn1-c1ccc(Br)cc1` [Compound 198], the IC50 at 1b (BK) NS5bΔ21 is under 990 nM. The EC50 in experiment [1] is 1000 to 9990 nM.
For `CNC(=O)c1c2cc(C3CC3)c(N(CCCNC(=O)c3ccc(N4CCOCC4)nc3)S(C)(=O)=O)cc2nn1-c1ccc(Br)cc1` [Compound 186], the IC50 on 1b (BK) NS5bΔ21 was under 990 nM. The EC50 in experiment [1] is under 990 nM.
For `CNC(=O)c1c2cc(C3CC3)c(N(CC(C)O)S(C)(=O)=O)cc2nn1-c1ccc(Br)cc1` (stereo not shown) [Compound 106, 2-(4-Bromophenyl)-5-cyclopropyl-6-[2-hydroxypropyl(methylsulfonyl)amino]-N-methyl-2H-indazole-3-carboxamide], on 1b (BK) NS5bΔ21, the IC50 lay within 1000 to 9990 nM. Moreover, in experiment [1], the EC50 is 1000 to 9990 nM.
On to `CNC(=O)c1c2cc(C3CC3)c(N(CCCO)S(C)(=O)=O)cc2nn1-c1ccc(C2CC2)cc1` [Compound 53, 5-cyclopropyl-2-(4-cyclopropylphenyl)-6-[(3-hydroxypropyl)(methylsulfonyl)amino]-N-methyl-2H-indazole-3-carboxamide], for which the half-inhibitory concentration (IC50) at 1b (BK) NS5bΔ21 lay in the range of 1000 to 9990 nM. Moreover, the EC50 in experiment [1] is under 990 nM.
On to `CNC(=O)c1c2cc(OC)c(N(CCCO)S(C)(=O)=O)cc2nn1-c1ccc(Nc2ccccc2F)cc1` [Compound 126], for which the IC50 on 1b (BK) NS5bΔ21 fell in the range of 1000 to 9990 nM. The EC50 in experiment [1] fell in the range of 1000 to 9990 nM.
As to `CNC(=O)c1c2cc(C3CC3)c(N(CCC(=O)NS(=O)(=O)c3cccs3)S(C)(=O)=O)cc2nn1-c1ccc(Br)cc1` [Compound 153], the IC50 on 1b (BK) NS5bΔ21 was under 990 nM. Further, the EC50 in experiment [1] fell in the range of 10000 to 50000 nM.
For `CNC(=O)c1c2cc(C3CC3)c(N(CCC(=O)NC(C)C)S(C)(=O)=O)cc2nn1-c1ccc(Br)cc1` [Compound 91, 2-(4-bromophenyl)-5-cyclopropyl-N-methyl-6-((methylsulfonyl)[3-oxo-3-(propan-2-ylamino)propyl]amino)-2H-indazole-3-carboxamide] the same measures were 1000 to 9990 nM and 1000 to 9990 nM.
For `C=C(C)c1cc2c(C(=O)NC)n(-c3ccc(F)cc3)nc2cc1N(CC)S(C)(=O)=O` [Compound 129] the same measures were 10000 to 50000 nM and 1000 to 9990 nM.
